Source: US7456133B2, “Substituted arylketones” (Bayer CropScience AG, priority 2001, dated 2008)

System: weeds
Assay: Post-emergence test, damage to weeds
Assay type: in vivo
Conditions: test plants of 5-15 cm sprayed, rated after three weeks
Protocol: Solvent: 5 part by weight of acetone
Emulsifier: 1 part by weight of alkylaryl polyglycol ether
To produce a suitable preparation of active compound, 1 part by weight of active compound is mixed with the stated amount of solvent, the stated amount of emulsifier is added and the concentrate is diluted with water to the desired concentration.
Test plants of a height of 5-15 cm are sprayed with the preparation of active compound such that the particular amounts of active compound desired are applied per unit area. The concentration of the spray liquor is chosen such that the particular amounts of active compound desired are applied in 1000 l of water/ha.
After three weeks, the degree of damage to the plants is rated in % damage in comparison to the development of the untreated control. The figures denote: • 0%=no effect (like untreated control) • 100%=total destruction

With `CCn1ncc(C(=O)c2ccc(Cl)c(OCCNC(C)=O)c2Cl)c1OCc1ccc(Br)cc1` [Example I-2-4, N-{2-[3-({5-[(4-bromo-benzyl)-oxy]-1-ethyl-1H-pyrazol-4-yl}-carbonyl)-2,6-dichloro-phenoxy]-ethyl}-acetamide] as the compound, how does the activity against weeds read?
Its activity against weeds is “strong activity”.

System: not listed separately
Assay: Log P by reversed-phase HPLC (C 18), acidic range
Assay type: physicochemical
Conditions: Table 1, labelled a): acidic range, 0.1% aqueous phosphoric acid/acetonitrile gradient, 43° C.
Protocol: Log P values given in the tables were determined in accordance with EEC Directive 79/831 Annex V.A8 by HPLC (High Performance Liquid Chromatography) using a reversed-phase column (C 18). Temperature: 43° C. (a) Mobile phases for the determination in the acidic range: 0.1% aqueous phosphoric acid, acetonitrile; linear gradient from 10% acetonitrile to 90% acetonitrile—the corresponding measurement results in Tables 1 and 2 are labelled^a).

Which “log P” value does the source give for `CC(C)N(Cc1c(Cl)ccc(C(=O)c2cnn(C)c2O)c1Cl)C(=O)N(C)C` [Example I-2-18] here?
The value was “log P = 2.00^a)”.

With `CNC(=S)N(Cc1c(Cl)ccc(C(=O)c2cnn(C)c2O)c1Cl)C(C)C` [Example I-2-58] as the compound, how does the “log P” value read?
The value was “log P = 1.91^a)”.

For `CNC(=O)N(C)Cc1c(Cl)ccc(C(=O)C2C(=O)CCCC2=O)c1Cl` [Example I-2-59], which “log P” value is on record?
Its value is “log P = 1.81^a)”.

Which “log P” value does the source give for `CC(C)OC(=O)NCCOc1c(Cl)ccc(C(=O)C2C(=O)CCCC2=O)c1Cl` [Example I-2-69] here?
Its value is “log P = 2.98^a)”.

Which “log P” value does the source give for `CN(C)C(=O)N(Cc1c(Cl)ccc(C(=O)C2C(=O)CCCC2=O)c1Cl)C1CC1` [Example I-2-24] here?
Its value is “log P = 2.45^a)”.

With `CNC(=O)NCCOc1c(Cl)ccc(C(=O)C2C(=O)CCCC2=O)c1Cl` [Example I-2-73] as the compound, how does the “log P” value read?
The value was “log P = 1.84^a)”.

With `CN(C)C(=O)N(C)Cc1c(Cl)ccc(C(=O)C2C(=O)CCCC2=O)c1Cl` [Example I-2-61] as the compound, how does the “log P” value read?
Its value is “log P = 2.26^a)”.

Which “log P” value does the source give for `CC(C)N(Cc1c(Cl)ccc(C(=O)c2cnn(C)c2O)c1Cl)C(N)=O` [Example I-2-14] here?
The value was “log P = 1.32^a)”.

Which “log P” value does the source give for `CN(C)C(=O)N(Cc1c(Cl)ccc(C(=O)c2cnn(C)c2O)c1Cl)c1ccc(Cl)cc1` [Example I-2-25] here?
Its value is “log P = 1.69^a)”.

With `CN(C)C(=O)NCc1c(Cl)ccc(C(=O)C2C(=O)CCCC2=O)c1Cl` [Example I-2-21] as the compound, how does the “log P” value read?
Its value is “log P = 1.87^a)”.

With `Cc1ccccc1NC(=O)NCc1c(S(C)(=O)=O)ccc(C(=O)c2cnn(C)c2O)c1Cl` [Example I-2-81] as the compound, how does the “log P” value read?
The value was “log P = 1.58^a)”.

Which “log P” value does the source give for `CCOC(=O)N(Cc1c(Cl)ccc(C(=O)c2cnn(C)c2O)c1Cl)C(C)C` [Example I-2-45] here?
Its value is “log P = 2.69^a)”.

With `CNC(=S)NCCOc1c(Cl)ccc(C(=O)C2C(=O)CCCC2=O)c1Cl` [Example I-2-75] as the compound, how does the “log P” value read?
The value was “log P = 2.23^a)”.

Which “log P” value does the source give for `O=C(NCCOc1c(Cl)ccc(C(=O)C2C(=O)CCCC2=O)c1Cl)C1CC1` [Example I-2-68] here?
The value was “log P = 2.28^a)”.

Which “log P” value does the source give for `CC(C)NC(=O)NCc1c(Cl)ccc(C(=O)c2cnn(C)c2O)c1Cl` [Example I-2-22] here?
The value was “log P = 1.35^a)”.

For `CC(C)NC(=O)N(Cc1c(Cl)ccc(C(=O)c2cnn(C)c2O)c1Cl)C(C)C` [Example I-2-11], which “log P” value is on record?
Its value is “log P = 2.02^a)”.

For `CNC(=S)N(C)Cc1c(S(C)(=O)=O)ccc(C(=O)c2cnn(C)c2O)c1Cl` [Example I-2-64], which “log P” value is on record?
The value was “log P = 1.00^a)”.

With `CN(C)C(=O)NCc1c(Cl)ccc(C(=O)c2cnn(C)c2O)c1Cl` [Example I-2-23] as the compound, how does the “log P” value read?
The value was “log P = 1.13^a)”.

For `Cc1ccccc1NC(=O)NCc1c(Cl)ccc(C(=O)c2cnn(C)c2O)c1Cl` [Example I-2-19], which “log P” value is on record?
The value was “log P = 1.95^a)”.

For `COCC(=O)NCCOc1c(Cl)ccc(C(=O)C2C(=O)CCCC2=O)c1Cl` [Example I-2-13], which “log P” value is on record?
Its value is “log P = 2.12^a)”.

For `CC(C)NC(=O)N(Cc1c(Cl)ccc(C(=O)C2C(=O)CCCC2=O)c1Cl)C1CC1` [Example I-2-56], which “log P” value is on record?
Its value is “log P = 2.75^a)”.

Which “log P” value does the source give for `Cn1ncc(C(=O)c2ccc(Cl)c(OCCNC(N)=O)c2Cl)c1O` [Example I-2-118] here?
Its value is “log P = 1.66^a)”.

Which “log P” value does the source give for `O=C1CCCC(=O)C1C(=O)c1ccc(Cl)c(CNC(=S)Nc2ccccc2)c1Cl` [Example I-2-9] here?
Its value is “log P = 3.05^a)”.

With `CCNC(=O)N(Cc1c(Cl)ccc(C(=O)c2cnn(C)c2O)c1Cl)C(C)C` [Example I-2-16] as the compound, how does the “log P” value read?
The value was “log P = 1.42^a)”.

With `CC(C)N(Cc1c(Cl)ccc(C(=O)C2C(=O)CCCC2=O)c1Cl)C(N)=O` [Example I-2-12] as the compound, how does the “log P” value read?
Its value is “log P = 2.03^a)”.

For `CN(C)C(=O)N(C)Cc1c(Cl)ccc(C(=O)c2cnn(C)c2O)c1Cl` [Example I-2-62], which “log P” value is on record?
The value was “log P = 1.48^a)”.

For `CCNC(=O)N(Cc1c(Cl)ccc(C(=O)C2C(=O)CCCC2=O)c1Cl)C(C)C` [Example I-2-15], which “log P” value is on record?
Its value is “log P = 2.33^a)”.

Which “log P” value does the source give for `Cn1ncc(C(=O)c2ccc(S(C)(=O)=O)c(CNC(N)=O)c2Cl)c1O` [Example I-2-65] here?
Its value is “log P = 0.30^a)”.

Which “log P” value does the source give for `Cn1ncc(C(=O)c2ccc(Cl)c(OCCNC(N)=O)c2Cl)c1O` [Example I-2-119] here?
The value was “log P = 1.22^a)”.

Which “log P” value does the source give for `CC(C)NC(=O)N(Cc1c(Cl)ccc(C(=O)C2C(=O)CCCC2=O)c1Cl)C(C)C` [Example I-2-10] here?
Its value is “log P = 2.86^a)”.

For `Cc1ccccc1NC(=O)NCc1c(S(C)(=O)=O)ccc(C(=O)C2C(=O)CCCC2=O)c1Cl` [Example I-2-140], which “log P” value is on record?
Its value is “log P = 2.35^a)”.

Which “log P” value does the source give for `CCNC(=O)NCc1c(S(C)(=O)=O)ccc(C(=O)C2C(=O)CCCC2=O)c1Cl` [Example I-2-66] here?
Its value is “log P = 1.57^a)”.

With `CC(C)N(Cc1c(Cl)ccc(C(=O)C2C(=O)CCCC2=O)c1Cl)C(=O)N(C)C` [Example I-2-17] as the compound, how does the “log P” value read?
The value was “log P = 2.82^a)”.

With `CN(C)C(=O)NCc1c(S(C)(=O)=O)ccc(C(=O)C2C(=O)CCCC2=O)c1Cl` [Example I-2-82] as the compound, how does the “log P” value read?
The value was “log P = 1.58^a)”.

Which “log P” value does the source give for `CNC(=S)N(C)Cc1c(S(C)(=O)=O)ccc(C(=O)C2C(=O)CCCC2=O)c1Cl` [Example I-2-63] here?
The value was “log P = 1.81^a)”.

With `CC(C)N(Cc1c(Cl)ccc(C(=O)c2cnn(C)c2O)c1Cl)C(=O)Oc1ccccc1` [Example I-2-43] as the compound, how does the “log P” value read?
Its value is “log P = 3.19^a)”.

With `CCOC(=O)N(Cc1c(Cl)ccc(C(=O)C2C(=O)CCCC2=O)c1Cl)C(C)C` [Example I-2-44] as the compound, how does the “log P” value read?
The value was “log P = 3.69^a)”.

With `CN(C)C(=O)NCc1c(S(C)(=O)=O)ccc(C(=O)c2cnn(C)c2O)c1Cl` [Example I-2-83] as the compound, how does the “log P” value read?
The value was “log P = 0.77^a)”.

With `CC(C)N(Cc1c(Cl)ccc(C(=O)C2C(=O)CCCC2=O)c1Cl)C(=O)Oc1ccccc1` [Example I-2-42] as the compound, how does the “log P” value read?
Its value is “log P = 4.25^a)”.

For `CNC(=O)N(C)Cc1c(Cl)ccc(C(=O)c2cnn(C)c2O)c1Cl` [Example I-2-60], which “log P” value is on record?
Its value is “log P = 1.11^a)”.

Same assay, conditions: reversed-phase HPLC (C 18), acidic range: 0.1% aqueous phosphoric acid, acetonitrile; 43° C.; labelled a)

For `CC(C)NC(=O)N(Cc1ccc(C(=O)c2cnn(C)c2O)c([N+](=O)[O-])c1)c1ccccc1` [Example I-3-11], which “log P” value is on record?
The value was “log P = 2.05^a)”.

For `CCOC(=O)N(Cc1ccc(C(=O)C2C(=O)CCCC2=O)c([N+](=O)[O-])c1)C(C)C` [Example I-3-41], which “log P” value is on record?
The value was “log P = 3.04^a)”.

Which “log P” value does the source give for `CC(C)N(Cc1ccc(C(=O)c2cnn(C)c2O)c([N+](=O)[O-])c1)C(=O)N(C)C` [Example I-3-7] here?
The value was “log P = 1.63^a)”.

Which “log P” value does the source give for `CC(C)N(Cc1ccc(C(=O)c2cnn(C)c2O)c([N+](=O)[O-])c1)C(=O)Oc1ccccc1` [Example I-3-40] here?
Its value is “log P = 2.59^a)”.

With `CCNC(=O)N(Cc1ccc(C(=O)C2C(=O)CCCC2=O)c([N+](=O)[O-])c1)c1ccccc1` [Example I-3-8] as the compound, how does the “log P” value read?
The value was “log P = 2.60^a)”.

For `CCOC(=O)N(Cc1ccc(C(=O)c2cnn(C)c2O)c([N+](=O)[O-])c1)C(C)C` [Example I-3-42], which “log P” value is on record?
Its value is “log P = 2.06^a)”.

For `CC(C)NC(=O)N(Cc1ccc(C(=O)C2C(=O)CCCC2=O)c([N+](=O)[O-])c1)c1ccccc1` [Example I-3-10], which “log P” value is on record?
Its value is “log P = 2.94^a)”.

Which “log P” value does the source give for `CC(C)NC(=O)N(Cc1ccc(C(=O)C2C(=O)CCCC2=O)c([N+](=O)[O-])c1)C(C)C` [Example I-3-5] here?
Its value is “log P = 2.53^a)”.

With `CC(C)N(Cc1ccc(C(=O)C2C(=O)CCCC2=O)c([N+](=O)[O-])c1)C(=O)Oc1ccccc1` [Example I-3-39] as the compound, how does the “log P” value read?
Its value is “log P = 3.53^a)”.

For `CCNC(=O)N(Cc1ccc(C(=O)c2cnn(C)c2O)c([N+](=O)[O-])c1)c1ccccc1` [Example I-3-9], which “log P” value is on record?
Its value is “log P = 1.75^a)”.

With `CNC(=O)N(C)Cc1ccc(C(=O)c2cnn(C)c2O)c([N+](=O)[O-])c1` [Example I-3-25] as the compound, how does the “log P” value read?
The value was “log P = 0.68^a)”.

With `CC(C)NC(=O)N(Cc1ccc(C(=O)c2cnn(C)c2O)c([N+](=O)[O-])c1)C(C)C` [Example I-3-6] as the compound, how does the “log P” value read?
The value was “log P = 1.64^a)”.

Same assay, conditions: reversed-phase HPLC column (C 18); given in the preparation examples, acidic or neutral range not given

With `CCn1ncc(C(=O)c2ccc(Cl)c(OCCNC(=S)NC)c2Cl)c1O` [Example I-2-2, N-(2-{2,6-dichloro-3-[(1-ethyl-5-hydroxy-1H-pyrazol-4-yl)-carbonyl]-phenoxy}-ethyl)-N′-methyl-thiourea] as the compound, how does the chromatographic logP read?
The chromatographic logP was 1.6.

For `CCn1ncc(C(=O)c2ccc(Cl)c(OCCCl)c2Cl)c1O` [[2,4-dichloro-3-(2-chloro-ethoxy)-phenyl]-(1-ethyl-5-hydroxy-1H-pyrazol-4-yl)-methanone], which chromatographic logP is on record?
Its chromatographic logP is 2.73.

For `CCn1ncc(C(=O)c2ccc(Cl)c(OCCN)c2Cl)c1O` [II-1, [3-(2-amino-ethoxy)-2,4-dichloro-phenyl]-(1-ethyl-5-hydroxy-1H-pyrazol-4-yl)-methanone], which chromatographic logP is on record?
Its chromatographic logP is 0.72.

With `CCn1ncc(C(=O)c2ccc(Cl)c(OCCNC(C)=O)c2Cl)c1OCc1ccc(Br)cc1` [Example I-2-4, N-{2-[3-({5-[(4-bromo-benzyl)-oxy]-1-ethyl-1H-pyrazol-4-yl}-carbonyl)-2,6-dichloro-phenoxy]-ethyl}-acetamide] as the compound, how does the chromatographic logP read?
The chromatographic logP was 2.06.

With `CCOC(=O)c1ccc(Cl)c(OCCCl)c1Cl` [ethyl 2,4-dichloro-3-(2-chloro-ethoxy)-benzoate] as the compound, how does the chromatographic logP read?
The chromatographic logP was 3.76.

For `O=C(O)c1ccc(Cl)c(OCCCl)c1Cl` [2,4-dichloro-3-(2-chloro-ethoxy)-benzoic acid], which chromatographic logP is on record?
Its chromatographic logP is 2.31.
